Laboratory results taken from paper PMC6880192, “Structure–Effect Relationships of Novel Semi-Synthetic Cannabinoid Derivatives” (Frontiers in Pharmacology, 2019).
Entries after “also recorded” stand apart in the source; their conditions may differ.

What was measured:
CB2-receptor [1] = molecular target: T1, CB2-receptor (Homo sapiens, UniProt P34972); test: Competition binding against [3H]-CP55940, CB2 membranes; settings: for Ki: mean ± SEM, n = 3, radioligand [3H]-CP55940; for Selectivity CB2/CB1: ratio of Ki values
T1 construct: expressed in transfected cells; host or cells: CHO cells, stably transfected with CB2 cDNA (from IMIBIC) and transiently with CRE-luc

CB1-receptor [2] = molecular target: T2, CB1-receptor (Homo sapiens, UniProt P21554); test: cAMP-dependent luciferase assay in CHO-CB1-CRE-luc cells; format: cell-based; settings: for Effect on CB1: CHO-CB1-CRE-luc, summary classification; for CB1-receptor antagonistic activity (fold induction of CRE-luc): 15 min pre-incubation, then 1 µmol/L WIN for 6 h; for CB1-receptor agonistic activity (fold induction of CRE-luc): 6 h stimulation with test compound
T2 construct: expressed in transfected cells; host or cells: CHO cells, stably transfected with CB1 cDNA (from IMIBIC) and transiently with CRE-luc
Procedure: (§1) Briefly, CHO cells were stably transfected with CB1- and CB2-receptor complementary DNAs (cDNAs) (kindly provided by IMIBIC). Around 10^5 transfected cells per milliliter were seeded in 24-well plates and transiently transfected with the plasmid CRE-luc using Roti-Fect (Carl Roth, Karlsruhe) following the manufacturer’s instructions. The cells were harvested after 24 h. Two transfected cell types resulted: CHO-CB1-CRE-luc and CHO-CB2-CRE-luc.
(§2) To test for agonistic activity at the CB1-receptor, the CHO-CB1-CRE-luc cells were stimulated for 6 h with increasing concentrations of the test compounds ([Bouaboula et al. 1997]). Forskolin (FSK), a strong CB-receptor-independent activator of adenylyl-cyclase was used at 10 µmol/L as a positive control. To investigate the antagonistic activity, the CHO-CB1-CRE-luc cells were pre-incubated for 15 min with the test compounds before stimulation for 6 h with 1 µmol/L WIN ([Zheng et al. 2013]). To investigate CB2-receptor agonistic activity, CHO-CB2-CRE-luc cells were pre-incubated for 15 min with increasing concentrations of the test substances and then for 6 h with 10 µmol/L FSK. WIN, a non-specific agonist at CB2-receptors, was used as a positive control. To confirm CB2-receptor agonistic activities of the test compounds, CHO-CB2-CRE-luc cells were pre-incubated with the specific CB2-receptor antagonist AM630 (1 µmol/L, 6-iodopravadoline; Cayman, distributed by Biozol, Hamburg) ([Ross et al. 1999]; [Zheng et al. 2013]) and then treated with increasing concentrations of the test substances.
(§3) After the stimulations and incubations, cells were lysed in a solution of 25 mmol Tris-phosphate (pH = 7.8), 8 mmol MgCl2, 1 mmol dithiothreitol (DTT), 1% Triton X-100, and 7% glycerol. The luciferase activity was measured with a Luciferase Assay Kit (Promega, Madison) according to the manufacturer’s instructions using an AutoLumat LB 9501 (Berthold Technologies, Bad Wildbad).

CB2-receptor [3] = molecular target: T1, CB2-receptor; test: cAMP-dependent luciferase assay in CHO-CB2-CRE-luc cells; format: cell-based; settings: for CB2-receptor agonistic activity (fold induction of CRE-luc): 15 min pre-incubation, then 10 µmol/L FSK for 6 h; for Effect on CB2: CHO-CB2-CRE-luc, summary classification; for CB2 agonistic effect compared with positive control WIN: same dose as 1 µmol/L WIN
Procedure: as §1, §2, §3

CB1-receptor [4] = molecular target: T2, CB1-receptor; test: biochemical; format: binding; settings: mean ± SEM, n = 3; radioligand [3H]-CP55940
primary human monocytes = test: Anti-inflammatory effect on LPS-treated monocytes (ELISA); format: cell-based; settings: LPS 10 ng/ml, 24 h
Procedure: Human peripheral blood monocytes were prepared from healthy donors who provided written informed consent at the local blood bank (University Hospital of Freiburg, Germany). Mononuclear cells were isolated by density gradient centrifugation according to standard protocol ([English and Andersen, 1974]) using lymphocyte separation medium, (PAN Biotech, Aidenbach). Cells were resuspended in RPMI-1640 medium (Invitrogen/Thermo Fisher Scientific, Karlsruhe) containing 10% human serum (Hexacell, Berlin). About 5 × 10^5 cells per milliliter were seeded in 24-well plates and incubated at 37°C and 5% CO2. The medium and the non-adherent cells were removed by washing with PBS and fresh RPMI medium, and 1% human serum was added to each well.
To test the anti-inflammatory effect of the test compounds, monocytes were incubated for 30 min with increasing doses of the test compounds. Then lipopolysaccharide (LPS) (10 ng/ml; Escherichia coli, Sigma-Aldrich, St. Louis) was added followed by a 24 h incubation period. The supernatants were removed and the levels of IL-1β, IL-6, IL-8, TNF-α, and prostaglandin E2 (PGE2) determined by enzyme-linked immunosorbent assay (ELISA) performed according to the manufacturer’s instructions (IL-1β from Hiss, Freiburg; IL-6, IL-8, and TNF-α from ImmunoTools, Friesoythe; and PGE2 from Cayman, distributed by Biozol, Hamburg). Stimulation with LPS alone was considered 100%.

NF-κB = test: PMA-induced NF-κB-luc (KBF-luc) activation in Jurkat T-cells; format: cell-based; settings: 0.5–25 µmol/L
Procedure: (§4) Jurkat T-cells (10^6 cells per milliliter) were transiently transfected with plasmids that contained an NF-κB-dependent (KBF-luc) or NFAT-dependent (NFAT-luc) promotors fused to the luciferase gene using Lipofectin (Life Technologies, Carlsbad) according to the manufacturer’s instructions ([Yano et al. 1987]; [Durand et al. 1988]). Twenty-four hours after transfection, cells were stimulated for 30 min with increasing doses of the test compounds or WIN as a control (Tocris, Bristol). Then PMA (50 ng/ml)—for NFAT-luc—plus ionomycin (0.5 µg/ml) (Sigma-Aldrich, St. Louis) was added, followed by a 6 h incubation period.
as §3

RAW264.7 macrophages = test: IL-17-induced polarization to pro-inflammatory M1 macrophages (qPCR); format: cell-based; settings: RAW264.7, 0.5 to 10 µmol/L
Procedure: To assess the IL-17-induced polarization to pro-inflammatory M1 macrophages, RAW264.7 macrophages (10^6 cells per Petri dish) were incubated for 18 h with or without the test compounds containing 0.1% FBS. Subsequently, they were stimulated for 24 h with recombinant murine IL-17 (50 ng/ml; R&D Systems, Minneapolis). The CB2-receptor agonist JWH-133 was used as a positive control. Then, the messenger RNA (mRNA) was extracted using RNeasy Mini Kits (Qiagen, Hilden), and its purity determined by UV measurements at 260 and 280 nm. The induction of IL-6, IL-1β, CC-chemokine ligand 2 (CCL2), and tumor necrosis factor (TNF)-α mRNA was assessed as markers of pro-inflammatory activity using quantitative real-time polymerase chain reactions (qPCRs).
mRNA reverse transcription in cDNA was performed with iQ™ SYBR Green Supermix and the CFX96 real-time PCR system (Bio-Rad, Hercules). The amplification consisted of a 5 min denaturation at 95°C followed by 40 cycles each of 30 s at 95°C and 30 s at 55°C (annealing). Elongation for 30 s at 72°C came next, followed by a cycle for 10 s at 83°C and finally a cycle for 1 min at 72°C. Calculations were made according to the Livak method by quantifying glyceraldehyde 3-phosphate dehydrogenase (GAPDH) as a reference ([Schmittgen and Livak 2008]). The results are given as multiples of the reference gene ([…]).

NFAT = test: PMA/IO-induced NFAT-luc activation in Jurkat T-cells; format: cell-based; settings: 0.5–25 µmol/L
Procedure: as §4, §3

T1 sequence (P34972 whole entry): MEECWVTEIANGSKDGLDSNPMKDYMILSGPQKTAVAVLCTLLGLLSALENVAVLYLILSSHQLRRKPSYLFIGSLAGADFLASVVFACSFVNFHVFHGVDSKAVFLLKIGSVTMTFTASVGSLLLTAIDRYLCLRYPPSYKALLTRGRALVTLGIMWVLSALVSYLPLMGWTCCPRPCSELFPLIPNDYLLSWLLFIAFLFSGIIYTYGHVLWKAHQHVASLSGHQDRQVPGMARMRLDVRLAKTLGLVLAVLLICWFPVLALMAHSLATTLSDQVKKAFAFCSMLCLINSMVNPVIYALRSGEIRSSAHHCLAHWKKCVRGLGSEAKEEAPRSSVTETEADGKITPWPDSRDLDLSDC
T2 sequence (P21554 whole entry): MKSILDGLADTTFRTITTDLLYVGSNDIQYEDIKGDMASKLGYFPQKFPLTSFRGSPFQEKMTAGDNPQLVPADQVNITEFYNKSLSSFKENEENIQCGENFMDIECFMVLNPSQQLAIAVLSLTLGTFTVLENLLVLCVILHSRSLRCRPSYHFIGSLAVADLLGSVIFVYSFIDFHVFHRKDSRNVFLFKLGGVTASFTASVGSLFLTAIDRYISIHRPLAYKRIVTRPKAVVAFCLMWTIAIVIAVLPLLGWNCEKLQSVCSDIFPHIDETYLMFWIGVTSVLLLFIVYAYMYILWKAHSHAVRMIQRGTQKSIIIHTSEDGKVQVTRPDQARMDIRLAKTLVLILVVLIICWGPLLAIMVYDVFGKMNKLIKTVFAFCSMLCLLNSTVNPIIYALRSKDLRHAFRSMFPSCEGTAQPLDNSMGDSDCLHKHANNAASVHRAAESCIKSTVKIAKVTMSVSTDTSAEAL

| SMILES | Ki (CB2-receptor [1]) | Selectivity CB2/CB1 (CB2-receptor [1]) | Effect on CB1 (CB1-receptor [2]) | CB2-receptor agonistic activity (fold induction of CRE-luc) (CB2-receptor [3]) | Effect on CB2 (CB2-receptor [3]) | Ki (CB1-receptor [4]) | LPS-induced IL-1β release (primary human monocytes) | LPS-induced IL-6 release (primary human monocytes) | LPS-induced IL-8 release (primary human monocytes) | LPS-induced TNF-α release (primary human monocytes) | CB1-receptor antagonistic activity (fold induction of CRE-luc) (CB1-receptor [2]) | CB1-receptor agonistic activity (fold induction of CRE-luc) (CB1-receptor [2]) | CB2 agonistic effect compared with positive control WIN (CB2-receptor [3]) | Inhibition of PMA-induced NF-κB activation (NF-κB) | IL-17-stimulated CCL2 mRNA expression (RAW264.7 macrophages) | IL-17-stimulated IL-1β mRNA expression (RAW264.7 macrophages) | Inhibition of PMA/IO-induced NFAT activation (NFAT) | IL-17-stimulated IL-6 mRNA expression (RAW264.7 macrophages) | other results |
| --- | --- | --- | --- | --- | --- | --- | --- | --- | --- | --- | --- | --- | --- | --- | --- | --- | --- | --- | --- |
| C=C(C)[C@@H]1CCC(C)=C[C@H]1c1c(O)cc(CCC)c(C(=O)OCCO)c1O [2-HECBDV (7), 2-hydroxyethyl cannabidivarinolate] | 168 ± 39.4 nM | 33.6 | Antagonist | dose-dependent agonistic effects | Agonist | 5650 nM | – | – | – | – | – | – | – | – | – | – | – | – | – |
| C=C(C)[C@@H]1CCC(C)=C[C@H]1c1c(O)cc(CCCCC)c(C(=O)OC2CCCCC2)c1O [CHC (4), cyclohexyl cannabidiolate] | 510 ± 290 nM | 1.7 | Agonist | – | Agonist | 870 ± 100 nM | reduced | moderately and dose-dependently inhibited | moderately and dose-dependently inhibited | reduced | negative | activate CB1-receptors | as strong as the same dose of the positive control | did not inhibit | inhibited | inhibited | did not inhibit | – | Anti-inflammatory effects overall (primary human monocytes): only very weak anti-inflammatory effects |
| C=C(C)[C@@H]1CCC(C)=C[C@H]1c1c(O)cc(CCC)c(C(=O)OC2CCCCC2)c1O [CHCBDV (8), cyclohexyl cannabidivarinolate] | 4.62 ± 0.5 nM | 2.9 | Agonist | non-selective agonism | Agonist | 13.2 ± 0.9 nM | – | – | – | – | – | non-selective agonism | – | – | – | – | – | – | – |
| C=C(C)[C@@H]1CCC(C)=C[C@H]1c1c(O)cc(CCCCC)c(C(=O)OCCCCCC)c1O [HC (5), n-hexyl-cannabidiolate] | 67 ± 4 nM | 37.3 | Antagonist | did not activate | No activity | 2500 nM | inhibited at higher doses | dose-dependently inhibited | inhibited at higher doses | dose-dependently inhibited | dose-dependent activity | – | – | only marginal | inhibited | inhibited | no inhibition | dose-dependent reduction | – |
| C=C(C)[C@@H]1CCC(C)=C[C@H]1c1c(O)cc(CCC)c(C(=O)OCCCCCC)c1O [HCBDV (9), n-hexyl cannabidivarinolate] | 9.9 ± 2.5 nM | 0.8 | Agonist | no effect | No activity | 8.3 ± 0.69 nM | – | – | – | – | – | agonistic effects | – | – | – | – | – | – | – |
| C=C(C)[C@@H]1CCC(C)=C[C@H]1c1c(O)cc(CCCCC)c(C(=O)OCCNS(C)(=O)=O)c1O [NMSC (6), 2-(methylsulfonamido)ethyl cannabidiolate] | 12 ± 1 nM | 22.5 | Antagonist | – | Agonist | 270 ± 40 nM | enhanced | – | significantly reduced | significantly reduced | dose-dependent activity; also recorded: strongly CB1 antagonistic | – | similarly strongly agonistic | inhibited | reduced compared to the control at all concentrations | inhibited TNF-α and IL-1β only at low doses | significantly inhibited | co-stimulated | preference for the CB2-receptor (CB2-receptor [1]; CB2 over CB1): 22.5 fold; LPS-induced PGE2 release (primary human monocytes): significantly reduced; IL-17-stimulated TNF-α mRNA expression (RAW264.7 macrophages): inhibited TNF-α and IL-1β only at low doses |
